Assay results from ChEMBL document CHEMBL5036314, “Structure-Guided Design of the First Noncovalent Small-Molecule Inhibitor of CRM1” (J Med Chem, 2021).
Values belong to the molecule of their own block, whether it stands above or below them. Activity calls are given as the source filed them. The calls are words filed in the database; no cut-off is given here.

Key:
HeLa [1] = assay: Anti-cancer activity against human HeLa cells assessed as cell viability at 20 uM incubated for 2 hrs by EdU incorporation based assay; format: functional
[2] = target: Exportin-1 (Saccharomyces cerevisiae) (UniProt P30822); assay: Inhibition of GST-NES MVM binding to yeast CRM1 at 20 uM by pull down assay
HeLa [3] = assay: Anti-cancer activity against human HeLa cells assessed as cell survival at 10 uM for 72 hrs replaced with compound containing fresh culture medium every 12 hrs by Sulforhodamine B assay; format: functional, cell-based
HCT-116 = assay: Anti-cancer activity against human HCT-116 cells assessed as cell survival at 10 uM for 72 hrs replaced with compound containing fresh culture medium every 12 hrs by Sulforhodamine B assay; format: functional, cell-based
SW48 = assay: Anti-cancer activity against human SW48 cells assessed as cell survival at 10 uM for 72 hrs replaced with compound containing fresh culture medium every 12 hrs by Sulforhodamine B assay; format: functional, cell-based
HepG2 = assay: Anti-cancer activity against human HepG2 cells assessed as cell survival at 10 uM for 72 hrs replaced with compound containing fresh culture medium every 12 hrs by Sulforhodamine B assay; format: functional, cell-based
PANC-1 = assay: Anti-cancer activity against human PANC-1 cells assessed as cell survival at 10 uM for 72 hrs replaced with compound containing fresh culture medium every 12 hrs by Sulforhodamine B assay; format: functional, cell-based
MGC-803 = assay: Anti-cancer activity against human MGC-803 cells assessed as cell survival at 10 uM for 72 hrs replaced with compound containing fresh culture medium every 12 hrs by Sulforhodamine B assay; format: functional, cell-based
HGC-27 = assay: Anti-cancer activity against human HGC-27 cells assessed as cell survival at 10 uM for 72 hrs replaced with compound containing fresh culture medium every 12 hrs by Sulforhodamine B assay; format: functional, cell-based
Huh-7 = assay: Anti-cancer activity against human HuH-7 cells assessed as cell survival at 10 uM for 72 hrs replaced with compound containing fresh culture medium every 12 hrs by Sulforhodamine B assay; format: functional, cell-based
A549 = assay: Anti-cancer activity against human A549 cells assessed as cell survival at 10 uM for 72 hrs replaced with compound containing fresh culture medium every 12 hrs by Sulforhodamine B assay; format: functional, cell-based
A2780 = assay: Anti-cancer activity against human A2780 cells assessed as cell survival at 10 uM for 72 hrs replaced with compound containing fresh culture medium every 12 hrs by Sulforhodamine B assay; format: functional, cell-based
Saccharomyces cerevisiae = assay: Inhibition of NES binding to yeast CRM1-T539 mutant in absence of RanGTP at 20 uM by pull down assay

Structure (SMILES): CC(C)CCNc1cc(C[S+]([O-])c2cc(C(F)(F)F)cc(C(F)(F)F)c2)ccn1 (stereo not drawn)
Activity (HeLa [1]): inactive
inhibition [2]: inactive

Structure (SMILES): CC1=C(COCCC(C)(C)C)C(=O)N(Nc2ccc(C(F)(F)F)c(Cl)n2)C1=O
Activity (HeLa [3]): Active
Activity (HCT-116): Active
Activity (SW48): Active
Activity (HepG2): Active
Activity (PANC-1): Active
Activity (MGC-803): Active
Activity (HGC-27): Active
Activity (Huh-7): Active
Activity (A549): Active
Activity (A2780): Active

Structure (SMILES): CC(C)CCNC/C=C/Sc1cc(C(F)(F)F)cc(C(F)(F)F)c1
Activity (HeLa [1]): inactive

Further lines, with some results ahead:

inhibition [2]: inactive
Structure (SMILES): CC(C)CCNc1cc(C[S+]([O-])c2cc(C(F)(F)F)cc(C(F)(F)F)c2)on1 (stereo not drawn)
Activity (HeLa [1]): inactive

inhibition (Saccharomyces cerevisiae): Active
inhibition [2]: Active
Structure (SMILES): FC(F)(F)c1cc(S/C=C/CBr)cc(C(F)(F)F)c1
Activity (HeLa [1]): inactive
